In ChEMBL document CHEMBL3046712, “Molecular simulations of bergenin as a new urease inhibitor” (Med Chem Res, 2012) one finds IC50 and inhibition data, which are given here for two molecules.

Test [1] is described as follows: (§1) Inhibition of Sporosarcina pasteurii urease using urea as substrate after 15 min.
Another test has as its system Sporosarcina pasteurii. The test is described as §1.

In the case of `NC(N)=S` [THIOUREA], in test [1], half-maximal inhibition (IC50) was put at 25 µM. In the case of `COc1c(O)cc2c(c1O)[C@@H]1O[C@H](CO)[C@@H](O)[C@H](O)[C@H]1OC2=O` [BERGENIN], it took 21.7 µM to reach half-maximal inhibition in test [1] (IC50). In addition, the inhibition with Sporosarcina pasteurii came out at 78%.

The IC50 is the midpoint of a concentration-inhibition curve. Usually inhibition stands for the change of the read-out against control, counted positive when it falls. Read a low inhibition as little suppression.
